For series [1], the system named is BaF3. In words: Antiproliferative activity against mouse BaF3 cells assessed as cell viability measured after 72 hrs by Micro plate reader method. In kind it is functional, cell-based. To be noted: BaF3, 72 h.
The test system of series [2] is BaF3. The experiment in a line: Antiproliferative activity against mouse BaF3 cells transfected with wild type CD74-NTRK1 (unknown origin) harbouring G667C mutation assessed as cell viability measured after 72 hrs by Micro plate reader method. It is filed as functional, cell-based. Particulars: BaF3, 72 h.
The target of series [3] is NUAK family SNF1-like kinase 1 (Homo sapiens, UniProt O60285). The experiment in a line: Binding affinity to wild-type human partial length ARK5 (E25 to I332 residues) expressed in bacterial expression system by Kinomescan method relative to control.
NUAK family SNF1-like kinase 1, sequence (O60285 whole entry, the tested form may be a part): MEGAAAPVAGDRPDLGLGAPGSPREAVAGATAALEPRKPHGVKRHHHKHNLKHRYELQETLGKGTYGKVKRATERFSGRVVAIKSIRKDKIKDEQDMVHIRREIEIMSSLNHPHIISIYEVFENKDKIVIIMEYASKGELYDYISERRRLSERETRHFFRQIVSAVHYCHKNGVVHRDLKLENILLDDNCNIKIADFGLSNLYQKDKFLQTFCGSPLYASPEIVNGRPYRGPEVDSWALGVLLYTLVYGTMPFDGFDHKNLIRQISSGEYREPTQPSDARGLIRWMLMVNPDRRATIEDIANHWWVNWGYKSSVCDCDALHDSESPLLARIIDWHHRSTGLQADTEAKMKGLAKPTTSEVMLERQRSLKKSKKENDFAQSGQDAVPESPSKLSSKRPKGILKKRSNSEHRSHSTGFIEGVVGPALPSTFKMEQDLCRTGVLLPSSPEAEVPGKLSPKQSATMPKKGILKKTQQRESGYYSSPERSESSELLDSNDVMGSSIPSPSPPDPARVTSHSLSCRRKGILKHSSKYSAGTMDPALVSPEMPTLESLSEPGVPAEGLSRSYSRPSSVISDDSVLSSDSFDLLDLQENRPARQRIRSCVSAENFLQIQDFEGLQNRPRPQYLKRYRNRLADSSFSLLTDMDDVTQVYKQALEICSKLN
A further series addresses Focal adhesion kinase 1 (Homo sapiens, UniProt Q05397). In words: Binding affinity to wild-type human partial length FAK (D402 to R696 residues) expressed in bacterial expression system by Kinomescan method relative to control.
The target in series [4] is Fibroblast growth factor receptor 1 (Homo sapiens, UniProt P11362). The experiment in a line: Binding affinity to wild-type human partial length FGFR1 (P357 to V669 residues) expressed in bacterial expression system by Kinomescan method relative to control.
Fibroblast growth factor receptor 1, sequence (P11362 whole entry, the tested form may be a part): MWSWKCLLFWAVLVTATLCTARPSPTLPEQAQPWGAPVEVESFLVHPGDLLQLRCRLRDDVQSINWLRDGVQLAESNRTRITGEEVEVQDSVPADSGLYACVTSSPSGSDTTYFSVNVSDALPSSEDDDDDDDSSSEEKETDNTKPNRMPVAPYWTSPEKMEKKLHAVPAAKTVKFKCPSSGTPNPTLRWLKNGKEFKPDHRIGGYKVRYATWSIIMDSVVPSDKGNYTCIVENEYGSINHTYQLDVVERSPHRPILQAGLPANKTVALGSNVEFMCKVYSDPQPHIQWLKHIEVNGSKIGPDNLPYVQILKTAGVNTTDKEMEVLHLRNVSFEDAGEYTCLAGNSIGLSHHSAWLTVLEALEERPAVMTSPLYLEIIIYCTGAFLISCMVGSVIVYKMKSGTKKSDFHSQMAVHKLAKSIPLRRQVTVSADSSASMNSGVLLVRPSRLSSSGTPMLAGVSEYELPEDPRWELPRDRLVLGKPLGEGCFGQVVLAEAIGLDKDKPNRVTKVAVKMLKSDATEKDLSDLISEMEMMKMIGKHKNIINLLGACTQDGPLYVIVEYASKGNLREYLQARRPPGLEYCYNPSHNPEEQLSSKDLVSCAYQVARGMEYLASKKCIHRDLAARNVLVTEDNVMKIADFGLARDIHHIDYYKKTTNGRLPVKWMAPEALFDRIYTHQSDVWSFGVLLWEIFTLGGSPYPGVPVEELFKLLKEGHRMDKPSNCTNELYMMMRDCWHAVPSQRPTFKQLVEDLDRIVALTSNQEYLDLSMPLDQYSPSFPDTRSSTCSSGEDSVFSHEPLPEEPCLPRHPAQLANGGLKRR
Series [5] concerns the target Receptor-type tyrosine-protein kinase FLT3 (Homo sapiens, UniProt P36888). The experiment in a line: Binding affinity to wild-type human partial length FLT3 (V592 to Y969 residues) expressed in bacterial expression system by Kinomescan method relative to control.
The target in series [6] is Tyrosine-protein kinase JAK2 (Homo sapiens, UniProt O60674). In words: Binding affinity to wild-type human partial length JAK2 JH1 catalytic domain (A829 to G1132 residues) expressed in mammalian expression system by Kinomescan method relative to control.
The target in series [7] is Muscle, skeletal receptor tyrosine-protein kinase (Homo sapiens, UniProt O15146). The experiment in a line: Binding affinity to wild-type human partial length MUSK (M553 to V869 residues) expressed in bacterial expression system by Kinomescan method relative to control.
Muscle, skeletal receptor tyrosine-protein kinase, sequence (O15146 whole entry, the tested form may be a part): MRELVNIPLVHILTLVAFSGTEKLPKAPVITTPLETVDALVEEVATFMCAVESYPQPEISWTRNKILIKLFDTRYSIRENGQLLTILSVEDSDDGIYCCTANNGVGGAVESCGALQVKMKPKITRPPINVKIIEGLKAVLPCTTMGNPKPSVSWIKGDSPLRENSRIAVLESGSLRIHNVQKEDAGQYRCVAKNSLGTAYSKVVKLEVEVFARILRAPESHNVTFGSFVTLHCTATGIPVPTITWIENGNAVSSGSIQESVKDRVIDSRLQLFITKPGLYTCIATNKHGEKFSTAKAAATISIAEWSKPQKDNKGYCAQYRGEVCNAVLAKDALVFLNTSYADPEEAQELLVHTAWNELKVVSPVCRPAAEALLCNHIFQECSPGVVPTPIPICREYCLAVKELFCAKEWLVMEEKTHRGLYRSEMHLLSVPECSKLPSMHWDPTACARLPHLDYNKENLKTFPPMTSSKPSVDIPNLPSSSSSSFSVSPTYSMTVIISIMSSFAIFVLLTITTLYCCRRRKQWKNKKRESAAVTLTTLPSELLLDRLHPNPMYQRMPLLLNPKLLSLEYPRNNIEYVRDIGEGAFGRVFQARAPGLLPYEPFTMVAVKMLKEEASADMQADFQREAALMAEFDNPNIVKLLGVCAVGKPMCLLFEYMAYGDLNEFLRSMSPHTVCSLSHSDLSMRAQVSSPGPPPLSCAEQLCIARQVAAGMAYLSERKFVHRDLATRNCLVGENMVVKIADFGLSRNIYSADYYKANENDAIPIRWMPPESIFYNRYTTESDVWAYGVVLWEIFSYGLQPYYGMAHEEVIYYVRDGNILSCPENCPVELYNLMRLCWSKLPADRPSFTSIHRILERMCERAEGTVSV
A short description of series [8]: AUC (0 to infinity) in Sprague-Dawley rat at 10 mg/kg, po measured after 24 hrs by LC-MS/MS analysis. On the set-up: route oral, dose 10 mg/kg, time 24 hrs. To be noted: in vivo. In kind it is ADME, organism-based.
Series [9] can be described thus: Cmax in Sprague-Dawley rat at 10 mg/kg, po measured after 24 hrs by LC-MS/MS analysis. To be noted: in vivo. It is filed as ADME, organism-based. On the set-up: route oral, dose 10 mg/kg, time 24 hrs.
A short description of series [10]: Oral bioavailability in Sprague-Dawley rat at 10 mg/kg measured after 24 hrs by LC-MS/MS analysis. It is filed as ADME, organism-based. To be noted: in vivo.
Series [11] has as its system Receptor-type tyrosine-protein kinase FLT3 (Homo sapiens), P36888 [D835H]. In words: Binding affinity to FLT3 D835H mutant (unknown origin).
Series [12] has as its system Proto-oncogene tyrosine-protein kinase receptor Ret (Homo sapiens), P07949 [M918T]. In words: Binding affinity to RET M918T mutant (unknown origin).
The target of series [13] is T1, BDNF/NT-3 growth factors receptor (Homo sapiens, UniProt Q16620). To be noted: BaF3, dose 0.3-200 nM, time 6.0 hrs.
T1 sequence (Q16620 32-822 limits assumed): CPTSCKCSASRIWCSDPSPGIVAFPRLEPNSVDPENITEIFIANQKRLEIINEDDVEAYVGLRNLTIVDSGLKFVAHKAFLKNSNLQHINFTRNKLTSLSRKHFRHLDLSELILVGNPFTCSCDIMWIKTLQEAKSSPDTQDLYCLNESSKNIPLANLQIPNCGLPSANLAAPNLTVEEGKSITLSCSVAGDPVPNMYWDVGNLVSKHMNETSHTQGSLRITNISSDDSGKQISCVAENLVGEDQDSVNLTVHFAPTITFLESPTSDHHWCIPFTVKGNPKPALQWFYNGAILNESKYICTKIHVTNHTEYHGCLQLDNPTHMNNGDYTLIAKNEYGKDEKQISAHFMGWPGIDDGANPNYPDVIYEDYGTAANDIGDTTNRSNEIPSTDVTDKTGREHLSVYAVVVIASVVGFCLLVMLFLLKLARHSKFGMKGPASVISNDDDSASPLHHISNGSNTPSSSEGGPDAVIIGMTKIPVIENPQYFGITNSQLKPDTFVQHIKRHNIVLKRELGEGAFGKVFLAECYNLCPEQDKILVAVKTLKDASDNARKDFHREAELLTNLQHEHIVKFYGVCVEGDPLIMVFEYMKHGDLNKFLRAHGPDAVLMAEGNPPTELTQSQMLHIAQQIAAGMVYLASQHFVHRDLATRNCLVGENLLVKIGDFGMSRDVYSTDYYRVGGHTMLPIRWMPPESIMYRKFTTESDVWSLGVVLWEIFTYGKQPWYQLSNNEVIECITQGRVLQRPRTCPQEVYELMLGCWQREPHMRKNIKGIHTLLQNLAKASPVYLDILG
In series [14] the target is T1, BDNF/NT-3 growth factors receptor. To be noted: BaF3, dose 0.3-200 nM, time 6.0 hrs. The source holds these as a separate data set.

Molecules are shown by their SMILES. The source made the active and inactive calls. The rule behind the calls is not given here.

Proto-oncogene tyrosine-protein kinase receptor Ret (Homo sapiens), P07949 [M918T], sequence (P07949 whole entry M918T): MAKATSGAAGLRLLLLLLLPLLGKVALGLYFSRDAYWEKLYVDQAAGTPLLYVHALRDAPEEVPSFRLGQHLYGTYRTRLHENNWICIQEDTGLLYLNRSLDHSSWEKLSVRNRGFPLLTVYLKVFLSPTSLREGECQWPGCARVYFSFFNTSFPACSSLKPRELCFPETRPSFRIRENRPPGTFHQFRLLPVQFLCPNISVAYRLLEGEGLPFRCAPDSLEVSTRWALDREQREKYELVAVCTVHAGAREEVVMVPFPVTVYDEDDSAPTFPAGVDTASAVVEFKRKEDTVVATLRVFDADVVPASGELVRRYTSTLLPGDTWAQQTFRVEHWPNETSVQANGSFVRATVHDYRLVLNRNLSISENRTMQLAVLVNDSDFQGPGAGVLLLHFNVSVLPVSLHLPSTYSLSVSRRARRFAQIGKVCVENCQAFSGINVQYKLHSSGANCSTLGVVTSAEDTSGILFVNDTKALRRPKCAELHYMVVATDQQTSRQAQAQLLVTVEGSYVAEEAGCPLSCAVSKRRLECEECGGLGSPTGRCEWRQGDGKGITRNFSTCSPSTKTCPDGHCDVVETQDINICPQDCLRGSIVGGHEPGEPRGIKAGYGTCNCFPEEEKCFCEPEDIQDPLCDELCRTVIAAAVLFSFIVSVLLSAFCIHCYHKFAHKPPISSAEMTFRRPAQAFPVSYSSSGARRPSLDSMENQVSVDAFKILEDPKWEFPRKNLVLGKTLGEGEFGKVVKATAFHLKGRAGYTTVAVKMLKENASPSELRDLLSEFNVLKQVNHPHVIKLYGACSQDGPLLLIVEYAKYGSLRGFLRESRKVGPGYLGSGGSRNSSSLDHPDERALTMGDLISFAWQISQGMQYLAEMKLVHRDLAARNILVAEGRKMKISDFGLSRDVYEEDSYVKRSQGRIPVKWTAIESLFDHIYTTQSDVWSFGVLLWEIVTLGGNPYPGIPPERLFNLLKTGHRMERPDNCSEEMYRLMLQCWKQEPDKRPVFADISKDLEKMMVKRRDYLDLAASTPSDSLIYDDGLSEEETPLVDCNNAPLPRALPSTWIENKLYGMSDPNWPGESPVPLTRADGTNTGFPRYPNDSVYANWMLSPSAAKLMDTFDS

Regarding `C[C@@H](Nc1ccc2[nH]nc(/C=C/c3ccccn3)c2c1)c1cc(F)cc(F)c1`, the concentration for half-maximal inhibition (IC50) (usually the concentration that inhibits the measured activity by half) in the series with BaF3 [1] worked out at 3120 nM; in the series on BaF3 [2], 31 nM. For the same compound, the Kd – broadly, the equilibrium constant for the complex coming apart – amounted to 140 nM in series [3]; 200 nM on Focal adhesion kinase 1; 76 nM in [4]; 190 nM in [5]; 5.5 nM in series [6]; 110 nM in [7]. Moreover, the AUC(0-inf) (usually total exposure, with the tail of the curve extrapolated) in series [8] came out at 1.62 µM·h. Also, the Cmax – broadly, the maximum level reached in the sampled fluid or tissue – in [9] was determined as 360 nM. The bioavailability (usually dose-corrected exposure relative to a reference, in per cent) in series [10] is 8.79%. Also, the inhibition result in series [11], in series [12], in series [13] and in series [14] was “Active” each time.

Source of the values: ChEMBL document CHEMBL4765391, “Design, synthesis, and Structure-Activity Relationships (SAR) of 3-vinylindazole derivatives as new selective tropomyosin receptor kinases (Trk) inhibitors” (Eur J Med Chem, 2020).
